In PubChem BioAssay AID330 (DTP/NCI, 2004):
“And” between values parts separate entries of the source, which are not always exact repeats. Equal entries are not always repeated. Toxic doses and inconclusive results are not listed.

Tested on: P388 leukemia ip, CD2F1 mice, survival T/C
Experiment: NCI In Vivo Anticancer Drug Screen. Data for tumor model P388 Leukemia (intraperitoneal) in CD2F1 (CDF1) mice
Conditions: endpoint: median survival time, higher = longer survival
In short: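 Mice carrying the transplanted tumor received test compound or vehicle. Survival was recorded in each group, and the value is the treated-group measurement divided by that of the vehicle-treated control group.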

[1] = dose: 60.0 mg/kg/injection, schedule: Q01DX005 (ip), vehicle: saline
[2] = dose: 120.0 mg/kg/injection, schedule: Q01DX005 (ip), vehicle: saline
[3] = dose: 240.0 mg/kg/injection, schedule: Q01DX005 (ip), vehicle: saline
[4] = dose: 50.0 mg/kg/injection, schedule: Q01DX005 (ip), vehicle: Klucel (hydroxypropylcellulose) (HPC)
[5] = dose: 50.0 mg/kg/injection, schedule: Q01DX009 (ip), vehicle: saline
[6] = dose: 200.0 mg/kg/injection, schedule: Q01DX009 (ip), vehicle: saline
[7] = dose: 60.0 mg/kg/injection, schedule: Q01DX005 (ip), vehicle: saline with Tween-80
[8] = dose: 120.0 mg/kg/injection, schedule: Q01DX005 (ip), vehicle: saline with Tween-80
[9] = dose: 240.0 mg/kg/injection, schedule: Q01DX005 (ip), vehicle: saline with Tween-80
[10] = dose: 50.0 mg/kg/injection, schedule: Q01DX009 (ip), vehicle: saline with Tween-80
[11] = dose: 100.0 mg/kg/injection, schedule: Q01DX009 (ip), vehicle: saline with Tween-80
[12] = dose: 200.0 mg/kg/injection, schedule: Q01DX009 (ip), vehicle: saline with Tween-80

## CCN(CC)c1cc(=O)nc2ccccn12
[1]
  T/C: 100 % of control
[2]
  T/C: 99 % of control
[3]
  T/C: 106 % of control

## CN1OC(CS(=O)(=O)c2ccccc2)(S(=O)(=O)c2ccccc2)CC1c1ccccc1 (stereo unspecified)
[4]
  T/C: 103 % of control
dose: 100.0 mg/kg/injection, schedule: Q01DX005 (ip), vehicle: Klucel (hydroxypropylcellulose) (HPC)
  T/C: 101 % of control
dose: 200.0 mg/kg/injection, schedule: Q01DX005 (ip), vehicle: Klucel (hydroxypropylcellulose) (HPC)
  T/C: 101 % of control

## CCOP(=O)(OCC)C1CCCN2CCc3c([nH]c4ccccc34)C12 (stereo unspecified)
dose: 12.5 mg/kg/injection, schedule: Q01DX009 (ip), vehicle: saline
  T/C: 98 % of control
dose: 25.0 mg/kg/injection, schedule: Q01DX009 (ip), vehicle: saline
  T/C: 96 % of control
[5]
  T/C: 100 % of control and 89 % of control
[6]
  T/C: 100 % of control

## COc1cccc2c1C(=O)c1c(O)c3c(c(O)c1C2=O)C[C@@](O)(c1csc(-c2ccccc2)n1)C[C@@H]3OC1CC(N)C(O)C(C)O1 (stereo partly specified)
dose: 1.56 mg/kg/injection, schedule: Q01DX009 (ip), vehicle: water
  T/C: 174 % of control
dose: 3.13 mg/kg/injection, schedule: Q01DX009 (ip), vehicle: water
  T/C: 165 % of control
dose: 6.25 mg/kg/injection, schedule: Q01DX009 (ip), vehicle: water
  T/C: 182 % of control

## OCc1ccc(CO)cc1
dose: 100.0 mg/kg/injection, schedule: Q04DX003 (ip), vehicle: saline sonified
  T/C: 104 % of control
dose: 200.0 mg/kg/injection, schedule: Q04DX003 (ip), vehicle: saline sonified
  T/C: 100 % of control
dose: 400.0 mg/kg/injection, schedule: Q04DX003 (ip), vehicle: saline sonified
  T/C: 100 % of control

## Nc1cc2c(c[n+](CCCCCCCCCC[n+]3cc4c5ccccc5c(N)cc4c4ccccc43)c3ccccc23)c2ccccc12
dose: 0.78 mg/kg/injection, schedule: Q04DX003 (ip), vehicle: other
  T/C: 118 % of control
dose: 12.5 mg/kg/injection, schedule: Q04DX003 (ip), vehicle: distilled water + Tween-80
  T/C: 166 % of control
dose: 25.0 mg/kg/injection, schedule: Q04DX003 (ip), vehicle: distilled water + Tween-80
  T/C: 159 % of control
dose: 25.0 mg/kg/injection, schedule: Q04DX003 (ip), vehicle: other
  T/C: 160 % of control and 166 % of control
dose: 50.0 mg/kg/injection, schedule: Q04DX003 (ip), vehicle: distilled water + Tween-80
  T/C: 165 % of control
dose: 50.0 mg/kg/injection, schedule: Q04DX003 (ip), vehicle: other
  T/C: 157 % of control and 160 % of control
dose: 100.0 mg/kg/injection, schedule: Q04DX003 (ip), vehicle: distilled water + Tween-80
  T/C: 161 % of control
dose: 200.0 mg/kg/injection, schedule: Q04DX003 (ip), vehicle: distilled water + Tween-80
  T/C: 161 % of control
dose: 200.0 mg/kg/injection, schedule: Q04DX003 (ip), vehicle: other
  T/C: 169 % of control
dose: 400.0 mg/kg/injection, schedule: Q04DX003 (ip), vehicle: distilled water + Tween-80
  T/C: 175 % of control

## O=CNCC(=O)O
[5]
  T/C: 101 % of control
dose: 100.0 mg/kg/injection, schedule: Q01DX009 (ip), vehicle: saline
  T/C: 97 % of control
[6]
  T/C: 99 % of control

## COc1cc(/C=N/NC(N)=O)cc(OC)c1O
dose: 50.0 mg/kg/injection, schedule: Q01DX009 (ip), vehicle: Klucel (hydroxypropylcellulose) (HPC)
  T/C: 105 % of control
dose: 100.0 mg/kg/injection, schedule: Q01DX009 (ip), vehicle: Klucel (hydroxypropylcellulose) (HPC)
  T/C: 99 % of control
dose: 200.0 mg/kg/injection, schedule: Q01DX009 (ip), vehicle: Klucel (hydroxypropylcellulose) (HPC)
  T/C: 98 % of control

## O=S1(=O)C(=C(c2ccccc2)c2ccccc2)S(=O)(=O)c2ccccc21
[7]
  T/C: 104 % of control
[8]
  T/C: 96 % of control
[9]
  T/C: 102 % of control

## COc1ccc2c(c1)CCC1C2CCC2(C)C1CCC2(O)CCN (stereo unspecified)
dose: 25.0 mg/kg/injection, schedule: Q04DX002 (ip), vehicle: saline
  T/C: 100 % of control
dose: 50.0 mg/kg/injection, schedule: Q04DX002 (ip), vehicle: saline
  T/C: 101 % of control
dose: 100.0 mg/kg/injection, schedule: Q04DX002 (ip), vehicle: saline
  T/C: 104 % of control

## CCCC/C([O-])=C1/C(=O)N(c2ccccc2)N=C1C.CCCC/C([O-])=C1/C(=O)N(c2ccccc2)N=C1C.[Cu+2]
[7]
  T/C: 90 % of control
[8]
  T/C: 97 % of control
[9]
  T/C: 96 % of control

## COc1cccc2c1oc1c3ccc(O)cc3oc(=O)c21
dose: 6.2 mg/kg/injection, schedule: Q01DX007 (ip), vehicle: carboxymethylcellulose (CMC)
  T/C: 91 % of control

## CCC1SCC(=O)N1c1nncs1 (stereo unspecified)
dose: 25.0 mg/kg/injection, schedule: Q01DX005 (ip), vehicle: saline with Tween-80
  T/C: 104 % of control
dose: 50.0 mg/kg/injection, schedule: Q01DX005 (ip), vehicle: saline with Tween-80
  T/C: 101 % of control and 102 % of control
dose: 100.0 mg/kg/injection, schedule: Q01DX005 (ip), vehicle: saline with Tween-80
  T/C: 102 % of control and 97 % of control
dose: 200.0 mg/kg/injection, schedule: Q01DX005 (ip), vehicle: saline with Tween-80
  T/C: 101 % of control

## O=C1c2ccccc2CCC1[n+]1ccc2ccccc2c1 (stereo unspecified)
dose: 12.5 mg/kg/injection, schedule: Q01DX005 (ip), vehicle: Klucel (hydroxypropylcellulose) (HPC)
  T/C: 102 % of control
dose: 25.0 mg/kg/injection, schedule: Q01DX005 (ip), vehicle: Klucel (hydroxypropylcellulose) (HPC)
  T/C: 104 % of control
[4]
  T/C: 106 % of control and 111 % of control

## N#Cc1c[nH]n2ccnc12
dose: 60.0 mg/kg/injection, schedule: Q01DX005 (ip), vehicle: Klucel (hydroxypropylcellulose) (HPC)
  T/C: 101 % of control
dose: 120.0 mg/kg/injection, schedule: Q01DX005 (ip), vehicle: Klucel (hydroxypropylcellulose) (HPC)
  T/C: 101 % of control
dose: 240.0 mg/kg/injection, schedule: Q01DX005 (ip), vehicle: Klucel (hydroxypropylcellulose) (HPC)
  T/C: 105 % of control

## CNC(=O)OCCC(OC(=O)NC)C1CCC2C3CCC4CC(OC(=O)NC)CCC4(C)C3CCC12C (stereo unspecified)
dose: 100.0 mg/kg/injection, schedule: Q01DX001 (ip), vehicle: Klucel (hydroxypropylcellulose) (HPC)
  T/C: 108 % of control
dose: 200.0 mg/kg/injection, schedule: Q01DX001 (ip), vehicle: Klucel (hydroxypropylcellulose) (HPC)
  T/C: 108 % of control
dose: 400.0 mg/kg/injection, schedule: Q01DX001 (ip), vehicle: Klucel (hydroxypropylcellulose) (HPC)
  T/C: 101 % of control

## Cc1cn(Cc2ccc(Cl)cc2Cl)c(C)n1
dose: 15.0 mg/kg/injection, schedule: Q01DX005 (ip), vehicle: saline with Tween-80
  T/C: 100 % of control
dose: 30.0 mg/kg/injection, schedule: Q01DX005 (ip), vehicle: saline with Tween-80
  T/C: 107 % of control
[7]
  T/C: 100 % of control and 108 % of control

## Cn1cnc([N+](=O)[O-])c1S(=O)(=O)NCN1CCOCC1
dose: 6.25 mg/kg/injection, schedule: Q01DX009 (ip), vehicle: Klucel (hydroxypropylcellulose) (HPC)
  T/C: 116 % of control
dose: 12.5 mg/kg/injection, schedule: Q01DX009 (ip), vehicle: Klucel (hydroxypropylcellulose) (HPC)
  T/C: 119 % of control

## Cc1ncc([N+](=O)[O-])n1CCN=[N+]=[N-]
dose: 50.0 mg/kg/injection, schedule: Q04DX003 (ip), vehicle: saline
  T/C: 99 % of control and 100 % of control
dose: 100.0 mg/kg/injection, schedule: Q04DX003 (ip), vehicle: saline
  T/C: 101 % of control and 107 % of control
dose: 200.0 mg/kg/injection, schedule: Q04DX003 (ip), vehicle: saline
  T/C: 100 % of control and 112 % of control
dose: 400.0 mg/kg/injection, schedule: Q04DX003 (ip), vehicle: saline
  T/C: 100 % of control and 107 % of control

## CC1=C(c2ccccc2)C2(c3ccccc3)OC(c3ccc([N+](=O)[O-])cc3)=NOC2(C)C1 (stereo unspecified)
[10]
  T/C: 93 % of control
[11]
  T/C: 93 % of control
[12]
  T/C: 96 % of control

## COc1ccn(CC(C)=O)c(=O)n1
[1]
  T/C: 100 % of control
[2]
  T/C: 100 % of control
[3]
  T/C: 100 % of control

## O=C(Nc1ccc(O)c(C(=O)O)c1)Oc1ccc([N+](=O)[O-])cc1
[7]
  T/C: 102 % of control
[8]
  T/C: 107 % of control
[9]
  T/C: 94 % of control

## CC(C)(C)C(=O)OCCN(CCOC(=O)C(C)(C)C)C(=O)COC(=O)C(C)(C)C
[10]
  T/C: 96 % of control
[11]
  T/C: 94 % of control
[12]
  T/C: 100 % of control

## O=C(Nc1ccccc1)Oc1cccc(/C=N/Sc2ccccc2)c1
[10]
  T/C: 98 % of control

## CCCCCCCCCCCCCCCCCC[n+]1cccc(C2CCCN2C)c1 (stereo unspecified) (tested in a mixture with another compound)
dose: 25.0 mg/kg/injection, schedule: Q01DX009 (ip), vehicle: Klucel (hydroxypropylcellulose) (HPC)
  T/C: 104 % of control

## OC(CC1CCCCN1)c1cc2c(Cl)cc(Cl)cc2c2cc(C(F)(F)F)ccc12 (stereo unspecified)
dose: 12.5 mg/kg/injection, schedule: Q01DX009 (ip), vehicle: saline with Tween-80
  T/C: 95 % of control
dose: 25.0 mg/kg/injection, schedule: Q01DX009 (ip), vehicle: saline with Tween-80
  T/C: 104 % of control
[10]
  T/C: 101 % of control
